Experiment [1] deals with LoVo. Briefly: In vitro cytotoxic activity against human colon adenocarcinoma (LoVo) cells. Format: functional, cell-based.
Experiment [2] has as its system LoVo. Briefly: In vitro cytotoxic activity against human colon adenocarcinoma resistant to doxorubicin (LoVo Dx) cells. Format: functional, cell-based.
Experiment [3] can be described thus: Resistance index was determined by ratio of cytotoxicities of human colon adenocarcinoma (LoVo) cells to human colon adenocarcinoma resistant to doxorubicin (LoVo Dx) cells. Format: functional.
The subject of experiment [4] is L1210. Briefly: In vitro cytotoxic activity against murine leukemia L1210 cells. To be noted: Mus musculus. Format: functional, cell-based.
Experiment [5] is described as follows: In vitro cytotoxic activity against sarcoma resistant to doxorubicin S-180 Dx cells. To be noted: Mus musculus. Format: functional, cell-based.
The nature of experiment [6]: In vitro cytotoxic activity against sarcoma S-180 cells. To be noted: Mus musculus. Format: functional, cell-based.
For experiment [7], the system named is LoVo. Briefly: In vitro cytotoxic activity against human colon adenocarcinoma (LoVo) cells. Format: functional, cell-based.
In experiment [8] the test system is LoVo. Nature of the experiment: In vitro cytotoxic activity against human colon adenocarcinoma resistant to doxorubicin (LoVo Dx) cells. Format: functional, cell-based.

In brackets after ≈: the same amount, converted by molar mass.

One may read the IC50 as the concentration needed to halve the response being measured. Take `Cc1ccc2c3c(nn2CCN(C)C)-c2ccccc2Sc13`: the figures for the IC50 in experiment [1], in experiment [2] and in experiment [4] were 0.7 µg/mL (≈ 2.26 µM), 1.7 µg/mL (≈ 5.49 µM) and 0.07 µg/mL (≈ 0.226 µM), respectively. The Resistance index in experiment [3] stood at 2.4.
As to `Cc1ccc2nn(CCN(C)C)c3c2c1Sc1cnccc1-3`, the concentration for half-maximal inhibition (IC50) was 0.4 µg/mL (≈ 1.29 µM) in experiment [5], 0.35 µg/mL (≈ 1.13 µM) in experiment [6] and 0.25 µg/mL (≈ 0.805 µM) in experiment [4].
For the molecule `Cc1ccc2c3c(nn2CCN(C)C)-c2cccnc2Sc13`, the IC50 in experiment [7] came out at 3.1 µg/mL (≈ 9.99 µM); in experiment [8] it was 3.3 µg/mL (≈ 10.6 µM); in experiment [5] it was 0.62 µg/mL (≈ 2 µM); in experiment [6], 0.46 µg/mL (≈ 1.48 µM); in experiment [4] it was 0.08 µg/mL (≈ 0.258 µM). The Resistance index in experiment [3] was found to be 1.1.
In the case of `Cc1ccc2c3c(nn2CCN(C)C)-c2ccncc2Sc13`, the IC50 came to 2.3 µg/mL (≈ 7.41 µM) in experiment [7]; 2.3 µg/mL (≈ 7.41 µM) in experiment [8]; 0.7 µg/mL (≈ 2.25 µM) in experiment [5]; 0.08 µg/mL (≈ 0.258 µM) in experiment [6]; 0.045 µg/mL (≈ 0.145 µM) in experiment [4]. Besides, the Resistance index in experiment [3] came to 1.
`Cc1ccc2nn(CCN(C)C)c3c2c1Sc1ncccc1-3`: the IC50 is 0.33 µg/mL (≈ 1.06 µM) in experiment [5], 0.3 µg/mL (≈ 0.966 µM) in experiment [6] and 0.26 µg/mL (≈ 0.838 µM) in experiment [4].
As to `Cc1ccc2c3c(nn2CCN(C)C)-c2cnccc2Sc13`, the half-inhibitory concentration (IC50) was found to be 0.004 µg/mL (≈ 0.0129 µM) in experiment [7]; 0.018 µg/mL (≈ 0.058 µM) in experiment [8]; 0.009 µg/mL (≈ 0.029 µM) in experiment [5]; 0.003 µg/mL (≈ 0.00966 µM) in experiment [6]; 0.0006 µg/mL (≈ 0.00193 µM) in experiment [4]. The Resistance index in experiment [3] amounted to 4.5.
Regarding `Cc1ccc2nn(CCN(C)C)c3c2c1Sc1ccccc1-3`, the values for the IC50 in experiment [5], in experiment [6] and in experiment [4] were 0.75 µg/mL (≈ 2.42 µM), 0.5 µg/mL (≈ 1.62 µM) and 0.25 µg/mL (≈ 0.808 µM), respectively.
With `COc1cccc2c1C(=O)c1c(O)c3c(c(O)c1C2=O)C[C@@](O)(C(=O)CO)C[C@@H]3O[C@H]1C[C@H](N)[C@H](O)[C@H](C)O1` [DOXORUBICIN], in experiment [1], the IC50 worked out at 0.52 µg/mL (≈ 0.957 µM). The Resistance index in experiment [3] came out at 97.
In the case of `O=C1c2c(O)ccc(O)c2C(=O)c2c(NCCNCCO)ccc(NCCNCCO)c21` [MITOXANTRONE], the IC50 worked out at 0.023 µg/mL (≈ 0.0517 µM) in experiment [1] and 0.62 µg/mL (≈ 1.39 µM) in experiment [8]. Moreover, in experiment [3], the Resistance index worked out at 27.
